The target of experiment [1] is T1, ACC2 (acetyl-CoA carboxylase 2) (Homo sapiens, UniProt O00763).
T1 construct: catalogue no; 50201, amino acids 39—end, expressed in baculovirus-transfected Sf9 insect cells; His (C); purchased BPS Bioscience (San Diego, Calif.) 50201; host or cells: baculovirus-transfected Sf9 insect cells
Put plainly: Human ACC2 enzyme assay (HTRF ADP detection). The conditions noted are these: 20 μM acetyl-CoA, 15 min pre-incubation, 20 min at 22° C.; read-out: ACC 2 IC50. The format is biochemical.

Experiment [2] has as its target T2, recombinant human ACC1 (acetyl-CoA carboxylase 1) (Homo sapiens, UniProt Q13085).
T2 construct: NM_198834, amino acids 39—end; FLAG (C); made in house; host or cells: baculovirus-transfected insect cells (Hi5)
Put plainly: Human ACC1 enzyme assay (HTRF ADP detection).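 Also: ADP by-product quantified by competitive HTRF immunoassay with europium cryptate anti-ADP antibody and d2-labelled ADP, read after 1 h binding at 22 °C, enzyme near 2.5 ng/µl.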 The conditions noted are these: 50 μM ATP, 20 μM acetyl-CoA, 15 min pre-incubation, 20 min at 22° C.; read-out: ACC 1 IC50. The format is biochemical.
Description: The basic principle of the assay is the measurement of adenosine diphosphate (ADP), which is formed as a by-product, by means of an HTRF®-based competitive immunoassay (HTRF=Homogeneous Time Resolved Fluorescence).
The amount of complex of d2-labelled ADP and europium cryptate-labelled anti-ADP antibody was then determined by measuring the resonance energy transfer of europium cryptate to d2.

Bounds are passed on as bounds.

T1 sequence (O00763 39-2458 limits assumed): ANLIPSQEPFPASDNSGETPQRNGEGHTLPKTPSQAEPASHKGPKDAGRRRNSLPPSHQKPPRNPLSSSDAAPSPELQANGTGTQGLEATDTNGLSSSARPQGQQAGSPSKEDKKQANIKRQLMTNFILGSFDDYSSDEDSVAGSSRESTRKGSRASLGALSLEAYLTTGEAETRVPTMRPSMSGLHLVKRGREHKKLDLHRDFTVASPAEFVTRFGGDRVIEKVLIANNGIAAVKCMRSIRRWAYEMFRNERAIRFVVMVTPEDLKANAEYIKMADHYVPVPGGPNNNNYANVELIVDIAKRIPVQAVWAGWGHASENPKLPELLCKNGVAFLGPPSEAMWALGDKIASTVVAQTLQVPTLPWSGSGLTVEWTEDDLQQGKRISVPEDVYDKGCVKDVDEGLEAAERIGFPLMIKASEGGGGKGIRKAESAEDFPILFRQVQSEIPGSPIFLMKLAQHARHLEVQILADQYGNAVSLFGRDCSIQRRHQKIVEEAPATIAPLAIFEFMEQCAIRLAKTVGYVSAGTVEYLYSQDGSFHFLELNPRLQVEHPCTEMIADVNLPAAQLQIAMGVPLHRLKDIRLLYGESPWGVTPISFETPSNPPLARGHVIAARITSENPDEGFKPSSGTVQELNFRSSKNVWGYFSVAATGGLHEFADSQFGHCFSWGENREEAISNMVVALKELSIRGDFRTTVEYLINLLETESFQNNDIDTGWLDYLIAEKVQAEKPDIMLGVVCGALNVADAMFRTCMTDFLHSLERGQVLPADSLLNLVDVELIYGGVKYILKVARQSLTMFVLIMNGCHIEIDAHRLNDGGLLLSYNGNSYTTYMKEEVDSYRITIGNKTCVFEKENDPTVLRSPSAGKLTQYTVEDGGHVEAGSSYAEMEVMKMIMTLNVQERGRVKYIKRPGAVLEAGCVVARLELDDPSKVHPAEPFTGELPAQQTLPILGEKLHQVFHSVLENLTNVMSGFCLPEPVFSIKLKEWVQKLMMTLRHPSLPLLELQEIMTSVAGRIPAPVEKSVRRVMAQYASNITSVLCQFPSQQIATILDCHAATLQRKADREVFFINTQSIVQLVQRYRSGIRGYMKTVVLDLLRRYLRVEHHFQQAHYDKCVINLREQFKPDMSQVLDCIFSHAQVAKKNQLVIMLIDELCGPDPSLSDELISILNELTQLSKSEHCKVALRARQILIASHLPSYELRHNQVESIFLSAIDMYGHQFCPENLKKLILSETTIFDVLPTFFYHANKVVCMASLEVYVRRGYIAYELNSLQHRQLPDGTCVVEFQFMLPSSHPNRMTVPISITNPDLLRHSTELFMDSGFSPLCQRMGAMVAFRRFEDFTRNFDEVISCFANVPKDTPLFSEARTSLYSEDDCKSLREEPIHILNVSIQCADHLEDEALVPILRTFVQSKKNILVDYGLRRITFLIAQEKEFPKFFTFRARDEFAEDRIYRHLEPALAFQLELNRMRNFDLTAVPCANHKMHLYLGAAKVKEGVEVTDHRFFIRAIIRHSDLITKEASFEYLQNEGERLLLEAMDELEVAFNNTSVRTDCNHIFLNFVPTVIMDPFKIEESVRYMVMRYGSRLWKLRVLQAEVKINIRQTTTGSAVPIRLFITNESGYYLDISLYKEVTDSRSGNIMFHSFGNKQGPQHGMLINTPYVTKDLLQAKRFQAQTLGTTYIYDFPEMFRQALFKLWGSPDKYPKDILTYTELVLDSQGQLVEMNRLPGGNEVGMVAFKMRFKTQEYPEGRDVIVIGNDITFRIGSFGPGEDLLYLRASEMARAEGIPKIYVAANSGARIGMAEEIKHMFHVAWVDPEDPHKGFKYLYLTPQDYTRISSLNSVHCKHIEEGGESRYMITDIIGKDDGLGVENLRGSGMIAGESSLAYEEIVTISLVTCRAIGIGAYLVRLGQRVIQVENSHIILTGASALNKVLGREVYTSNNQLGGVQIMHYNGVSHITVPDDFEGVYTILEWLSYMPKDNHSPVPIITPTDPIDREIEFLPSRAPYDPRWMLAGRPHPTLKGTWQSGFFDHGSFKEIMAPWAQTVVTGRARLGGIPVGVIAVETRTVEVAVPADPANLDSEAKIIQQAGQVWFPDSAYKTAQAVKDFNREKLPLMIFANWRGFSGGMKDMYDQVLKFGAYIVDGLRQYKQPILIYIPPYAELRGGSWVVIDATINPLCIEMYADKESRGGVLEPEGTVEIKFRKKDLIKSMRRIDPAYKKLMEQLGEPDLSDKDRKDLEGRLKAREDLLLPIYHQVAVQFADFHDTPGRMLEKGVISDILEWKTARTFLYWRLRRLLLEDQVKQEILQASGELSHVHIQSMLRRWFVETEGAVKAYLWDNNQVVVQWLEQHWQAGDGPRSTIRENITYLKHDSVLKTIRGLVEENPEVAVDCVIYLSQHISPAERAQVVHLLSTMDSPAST

Regarding `O=C1OC2(CCCC2)C(O)=C1c1cc(-c2cc(F)c(F)c(F)c2)ccc1Cl` [Example 2-24, 3-(4-chloro-3′,4′,5′-trifluorobiphenyl-3-yl)-4-hydroxy-1-oxaspiro[4.4]non-3-en-2-one], the results for the IC50 in experiment [1] and in experiment [2] were greater than 20000 nM and 997 nM, respectively.

For the molecule `O=C1OC2(CCCCC2)C(O)=C1c1cc(-c2ccc(F)c(F)c2)ccc1Cl` [Example 2-25, 3-(4-chloro-3′,4′-difluorobiphenyl-3-yl)-4-hydroxy-1-oxaspiro[4.5]dec-3-en-2-one], the IC50 is greater than 20000 nM in experiment [1] and 442 nM in experiment [2].

Regarding `Cc1ccc(-c2ccc(Cl)cc2)c(C)c1C1=C(O)[C@]2(CC[C@]3(CCCO3)CC2)OC1=O` [Example 2-26, (5s,8r)-3-(4′-chloro-2,4-dimethylbiphenyl-3-yl)-4-hydroxy-1,9-dioxadispiro[4.2.4.2]tetradec-3-en-2-one], the IC50 in experiment [1] was determined as 4800 nM; in experiment [2], 260 nM.

For the molecule `O=C1OC2(CCC3(CCCO3)CC2)C(O)=C1c1cc(-c2ccc(Cl)cc2)ccc1Cl` (centres unmarked) [Example 2-27, 3-(4,4′-dichlorobiphenyl-3-yl)-4-hydroxy-1,9-dioxadispiro[4.2.4.2]tetradec-3-en-2-one], the IC50 in experiment [1] came to 4150 nM; in experiment [2], 822 nM.

In the case of `Cc1ccc(-c2ccc(F)cc2)cc1C1=C(O)[C@]2(CC[C@@]3(CCCO3)CC2)OC1=O` [Example 2-28, (5r,8s)-3-(4′-fluoro-4-methylbiphenyl-3-yl)-4-hydroxy-1,9-dioxadispiro[4.2.4.2]tetradec-3-en-2-one], the IC50 in experiment [1] is 2500 nM; in experiment [2], 140 nM.

As for `Cc1ccc(-c2ccc(Cl)cc2)cc1C1=C(O)C2(CCC3(CCCO3)CC2)OC1=O` (centres unmarked) [Example 2-29, 3-(4′-chloro-4-methylbiphenyl-3-yl)-4-hydroxy-1,9-dioxadispiro[4.2.4.2]tetradec-3-en-2-one], the IC50 in experiment [1] is 789 nM; in experiment [2], 321 nM.

Take `Cc1cc(C)c(-c2ccc(Cl)cc2)cc1C1=C(O)[C@]2(CC[C@@]3(CCCO3)CC2)OC1=O` [Example 2-30, (5r,8s)-3-(4′-chloro-4,6-dimethylbiphenyl-3-yl)-4-hydroxy-1,9-dioxadispiro[4.2.4.2]tetradec-3-en-2-one]: the IC50 in experiment [1] was 32 nM; in experiment [2], 281 nM.

For `Cc1cc(C)c(-c2ccc(Cl)cc2)c(C)c1C1=C(O)[C@]2(CC[C@@]3(CCCO3)CC2)OC1=O` [Example 2-31, (5r,8s)-3-(4′-chloro-2,4,6-trimethylbiphenyl-3-yl)-4-hydroxy-1,9-dioxadispiro[4.2.4.2]tetradec-3-en-2-one], the IC50 was 48 nM in experiment [1] and 880 nM in experiment [2].

For the molecule `Cc1ccc(-c2ccc(Cl)cc2)c(C)c1C1=C(O)C2(CCC(OCC(F)(F)F)CC2)OC1=O` (centres unmarked) [Example 2-32, 3-(4′-chloro-2,4-dimethylbiphenyl-3-yl)-4-hydroxy-8-(2,2,2-trifluoroethoxy)-1-oxaspiro[4.5]dec-3-en-2-one], the IC50 came out at 1600 nM in experiment [1] and 450 nM in experiment [2].

In the case of `Cc1ccc(-c2ccc(Cl)cc2)cc1C1=C(O)C2(CCC(OCC(F)(F)F)CC2)OC1=O` (centres unmarked) [Example 2-33, 3-(4′-chloro-4-methylbiphenyl-3-yl)-4-hydroxy-8-(2,2,2-trifluoroethoxy)-1-oxaspiro[4.5]dec-3-en-2-one], the figures for the IC50 in experiment [1] and in experiment [2] were 3590 nM and 229 nM, respectively.

Take `COC1CCC2(CC1)OC(=O)C(c1c(C)ccc(-c3ccc(Cl)cc3)c1C)=C2O` (centres unmarked) [Example 2-34, 3-(4′-chloro-2,4-dimethylbiphenyl-3-yl)-4-hydroxy-8-methoxy-1-oxaspiro[4.5]dec-3-en-2-one]: the IC50 in experiment [1] was found to be 1270 nM; in experiment [2], 286 nM.

As to `Cc1ccc(-c2ccc(Cl)cc2)cc1C1=C(O)C(C(C)(C)C)OC1=O` (centres unmarked) [Example 2-35, 5-tert-butyl-3-(4′-chloro-4-methylbiphenyl-3-yl)-4-hydroxyfuran-2(5H)-one], the IC50 in experiment [1] is greater than 20000 nM; in experiment [2], 1020 nM.

As for `Cc1ccc(-c2ccc(Cl)cc2)cc1C1=C(O)C2(CCOCC2)OC1=O` [Example 2-37, 3-(4′-chloro-4-methylbiphenyl-3-yl)-4-hydroxy-1,8-dioxaspiro[4.5]dec-3-en-2-one], the IC50 in experiment [1] was greater than 20000 nM; in experiment [2] it was 342 nM.

For the molecule `Cc1ccc(-c2ccc(Cl)cc2)cc1C1=C(O)C2(CCCCCC2)OC1=O` [Example 2-38, 3-(4′-chloro-4-methylbiphenyl-3-yl)-4-hydroxy-1-oxaspiro[4.6]undec-3-en-2-one], the IC50 in experiment [1] worked out at 3780 nM; in experiment [2], 416 nM.

Regarding `COC1CCC2(CC1)OC(=O)C(c1cc(-c3ccc(Cl)cc3)ccc1C)=C2O` (centres unmarked) [Example 2-39, 3-(4′-chloro-4-methylbiphenyl-3-yl)-4-hydroxy-8-methoxy-1-oxaspiro[4.5]dec-3-en-2-one], the IC50 was determined as 3530 nM in experiment [1] and 216 nM in experiment [2].

Turning to `Cc1ccc(-c2ccc(Cl)cc2)cc1C1=C(O)C(C)(C2CCCCC2)OC1=O` (centres unmarked) [Example 2-40, 3-(4′-chloro-4-methylbiphenyl-3-yl)-5-cyclohexyl-4-hydroxy-5-methylfuran-2(5H)-one], the IC50 in experiment [1] was greater than 20000 nM; in experiment [2], 1220 nM.

`Cc1cc(C)c(-c2ccc(Cl)cc2)cc1C1=C(O)C2(CCOCC2)OC1=O` [Example 2-41, 3-(4′-chloro-4,6-dimethylbiphenyl-3-yl)-4-hydroxy-1,8-dioxaspiro[4.5]dec-3-en-2-one]: the IC50 worked out at 4220 nM in experiment [1] and 791 nM in experiment [2].

Take `Cc1cc(C)c(-c2ccc(Cl)cc2)cc1C1=C(O)C2(CCSCC2)OC1=O` [Example 2-42, 3-(4′-chloro-4,6-dimethylbiphenyl-3-yl)-4-hydroxy-1-oxa-8-thiaspiro[4.5]dec-3-en-2-one]: the figures for the IC50 in experiment [1] and in experiment [2] were 1020 nM and 357 nM, respectively.

Take `Cc1cc(C)c(-c2ccc(Cl)cc2)cc1C1=C(O)C2(CCCCCC2)OC1=O` [Example 2-43, 3-(4′-chloro-4,6-dimethylbiphenyl-3-yl)-4-hydroxy-1-oxaspiro[4.6]undec-3-en-2-one]: the IC50 came out at 330 nM in experiment [1] and 504 nM in experiment [2].

As for `COC1CCC2(CC1)OC(=O)C(c1cc(-c3ccc(Cl)cc3)c(C)cc1C)=C2O` (centres unmarked) [Example 2-44, 3-(4′-chloro-4,6-dimethylbiphenyl-3-yl)-4-hydroxy-8-methoxy-1-oxaspiro[4.5]dec-3-en-2-one], the IC50 in experiment [1] came to 160 nM; in experiment [2], 297 nM.

Turning to `Cc1cc(C)c(-c2ccc(Cl)cc2)cc1C1=C(O)C(C)OC1=O` (centres unmarked) [Example 2-45, 3-(4′-chloro-4,6-dimethylbiphenyl-3-yl)-4-hydroxy-5-methylfuran-2(5H)-one], the IC50 in experiment [1] was found to be 17000 nM; in experiment [2], 568 nM.

As to `Cc1cc(C)c(-c2ccc(Cl)cc2)cc1C1=C(O)C2(CCCOC2)OC1=O` (centres unmarked) [Example 2-46, 3-(4′-chloro-4,6-dimethylbiphenyl-3-yl)-4-hydroxy-1,7-dioxaspiro[4.5]dec-3-en-2-one], the IC50 in experiment [1] was determined as 7610 nM; in experiment [2] it was 580 nM.

With `Cc1cc(C)c(-c2ccc(Cl)cc2)c(C)c1C1=C(O)C2(CCCCCC2)OC1=O` [Example 2-48, 3-(4′-chloro-2,4,6-trimethylbiphenyl-3-yl)-4-hydroxy-1-oxaspiro[4.6]undec-3-en-2-one], the IC50 is 204 nM in experiment [1] and 1800 nM in experiment [2].

On to `Cc1cc(C)c(-c2ccc(Cl)cc2)c(C)c1C1=C(O)C2(CCCC2)OC1=O` [Example 2-49, 3-(4′-chloro-2,4,6-trimethylbiphenyl-3-yl)-4-hydroxy-1-oxaspiro[4.4]non-3-en-2-one], for which the values for the IC50 in experiment [1] and in experiment [2] were 1280 nM and 5780 nM, respectively.

On to `Cc1ccc(-c2cccc(Cl)c2)cc1C1=C(O)C2(CCCCCC2)OC1=O` [Example 2-50, 3-(3′-chloro-4-methylbiphenyl-3-yl)-4-hydroxy-1-oxaspiro[4.6]undec-3-en-2-one], for which the IC50 was determined as 8590 nM in experiment [1] and 903 nM in experiment [2].

Take `Cc1ccc(-c2ccc(Cl)cc2)cc1C1=C(O)C2(CCCCC2)SC1=O` [Example 3-2, 3-(4′-chloro-4-methylbiphenyl-3-yl)-4-hydroxy-1-thiaspiro[4.5]dec-3-en-2-one]: the values for the IC50 in experiment [1] and in experiment [2] were 1670 nM and 97 nM, respectively.

With `Cc1cc(C)c(-c2ccc(Cl)cc2)cc1C1=C(O)C2(CCCCC2)SC1=O` [Example 3-3, 3-(4′-chloro-4,6-dimethylbiphenyl-3-yl)-4-hydroxy-1-thiaspiro[4.5]dec-3-en-2-one], the IC50 in experiment [1] came out at 250 nM; in experiment [2], 340 nM.

Turning to `Cc1cc(C)c(-c2ccc(Cl)cc2)c(C)c1C1=C(O)C2(CCCCC2)SC1=O` [Example 3-4, 3-(4′-chloro-2,4,6-trimethylbiphenyl-3-yl)-4-hydroxy-1-thiaspiro[4.5]dec-3-en-2-one], the IC50 came to 228 nM in experiment [1] and 1310 nM in experiment [2].

Turning to `Cc1ccc(-c2ccc(C)c(C3=C(O)C4(CCCCC4)CC3=O)c2)cc1` [Example 6-1, 3-(4,4′-dimethylbiphenyl-3-yl)-4-hydroxyspiro[4.5]dec-3-en-2-one], the IC50 in experiment [1] was found to be 16000 nM; in experiment [2] it was 655 nM.

Take `Cc1ccc(-c2ccc(Cl)cc2Cl)cc1C1=C(O)C2(CCCCC2)CC1=O` [Example 6-2, 3-(2′,4′-dichloro-4-methylbiphenyl-3-yl)-4-hydroxyspiro[4.5]dec-3-en-2-one]: the IC50 came to 1690 nM in experiment [1] and 337 nM in experiment [2].

Regarding `Cc1ccc(-c2cccc(Cl)c2)cc1C1=C(O)C2(CCCCC2)CC1=O` [Example 6-3, 3-(3′-chloro-4-methylbiphenyl-3-yl)-4-hydroxyspiro[4.5]dec-3-en-2-one], the results for the IC50 in experiment [1] and in experiment [2] were 16200 nM and 1390 nM, respectively.

Source of the values: US20120129833A1, “CYCLIC KETOENOLS FOR THERAPY” (BAYER PHARMA AKTIENGESELLSCHAFT, priority 2010, published 2012).
